Source: US20030228675A1, “ATM related kinase ATX, nucleic acids encoding same and methods of use” (priority 2002, published 2003)

What was measured:
U2OS cells = assay: Clonogenic survival assay of oligonucleotide-transfected cells; format: cell-based, human
Method: To address concerns related to potential non-specific effects of ATXKI expression on cellular functions, an antisense oligonucleotide-based approach to reduce the level of ATX expression in U2OS cells was developed. The cells were mock transfected, or transfected with sense (S) or antisense (AS) oligonucleotides, and then treated for 24 h with various genotoxic agents. The cells were then trypsinized and replated, and clonogenic survival was analyzed after 10 days in culture. The results obtained with AS-treated cells were strikingly similar to those obtained with the ATXKI-expressing cells (FIGS. 2A-C). While transfection of U2OS cells with the S oligonucleotide reduced the basal level of colony outgrowth by 25%, treatment with the AS oligonucleotide decreased basal clonogenic activity by 75% (FIG. 2C, right panel). […] The reduction in ATX protein caused by AS treatment ranged from 50-90% in over 10 independent trials.
(§1) To prepare recombinant HA-tagged ATX and ATM proteins, HEK 293T cells were plated onto 60-mm dishes (9×10^5 cells per dish), and were transfected with 5 μg pcDNA3.1 (empty vector), HA-ATXWT, HA-ATXKI, or HA-ATMWT plasmid DNAS. Transfections were performed with the Fugene 6 transfection reagent (Roche), according to the manufacturer's instructions. For NMD assays (see Example 9, below), U2OS cells were seeded onto 100 mm dishes (1×10^6 cells per dish). […]
U2OS cells were seeded into 60 mm dishes (1×10^5 cells per dish) in complete medium. […] To quantitate the outgrowth of drug-resistant cells, the Coomassie Blue-bound protein was solubilized at 37° C. with 0.1 M NaOH, and the soluble material was analyzed by absorbance spectroscopy at a wavelength of 590 nm. […] Drug-resistant colonies were stained with Coomassie Blue after 10 days in culture, and the samples were analyzed with Image Pro Plus software to quantitate cell density. […]

ATX = assay: Protein levels in oligonucleotide-treated cells by immunoblotting; format: cell-based, human; settings: U2OS
Method: as §1, with “dish). After 20 h, cells were transfected with 1.5 μg of pmCMV-Gl test plasmid, either Norm or 39Ter (Ishigaki et al., 2001); 1.5 μg of phCMV-MUP reference plasmid (Ishigaki et al., Cell 106:607-617 (2001)); and 7 μg of empty plasmid (pcDNA 3.1), plasmids encoding HA-ATMWT, HA-ATMKI, HA-ATXWT or HA-ATXKI.” for “dish).”
Since p53 plays a central role in activation of the G1 checkpoint, and influences S, G2, and M checkpoints as well (Giaccia and Kastan, Genes & Development 12:2973-2983 (1998); Ko and Prives, supra, 1996), a functional deficiency of ATX might alter the cell-cycle arrest responses to IR and other genotoxic agents. To test this possibility, U2OS cells were pre-treated with S or AS oligonucleotides, exposed to IR, and cell-cycle distributions at 24 h post-irradiation were determined. […]

For “5′-AGCAAGCTCCCTCCTGTCTC-3′ (all phosphorothioate, sugars by position and methylation of C not given here) [AS oligonucleotide, ATX antisense phosphorothioate oligonucleotide complementary to ATX nucleotides 210-229]”, the “sensitivity to suppressive effects of IR and UV on clonogenic survival” value (U2OS cells; IR and UV treatments) was “significantly more sensitive”, the “decrease of basal level of colony outgrowth (basal clonogenic activity)” value (U2OS cells; non-irradiated, 10 days in culture) was 75% and the “expression levels of control proteins ATM and PLC-γ1” value (ATX; immunoblot) was “no significant change”. For the same substance, the “reduction in ATX protein” value (ATX; over 10 independent trials) was 50-90%.
